The series in a line: LCST (lower critical solution temperature) measured by UV/VIS spectrophotometer. The class given is physicochemical. As to conditions: lower critical solution temperature in water; Perkin-Elmer Lamda18 UV/VIS spectrophotometer. How it is done: Thermosensitivity in the present invention refers to the reversible phenomenon wherein a material is dissolved in water at a low temperature but precipitated as a result of the lowered solubility above at a critical temperature, and re-dissolved in water by lowering the temperature. This phenomenon is contradictory to the general phenomenon that solubility increases at higher temperatures. Thermosensitivity is often observed for water-soluble polymers that are dissolved below and precipitated above the so-called lower critical solution temperatures (LCST). Below the LCST, interaction between polymer and water molecules by hydrogen bonding is greater than the intermolecular hydrophobic interaction between polymer molecules, which results in dissolution of the polymer in water. As the temperature of the aqueous solution increases, however, the hydrogen bonding of the polymer-water molecules weakens whereas the hydrophobic interaction between the polymer molecules increases. As, the temperature of the aqueous solution reaches the LCST, the hydrophobic interaction becomes greater than the hydrogen bonding interaction between the polymer and water molecules resulting in the precipitation of the polymer in aqueous solution.
Elemental analysis of carbon, hydrogen, nitrogen in the compounds of the present invention was performed in the Special Analysis Center in our Institute by using a carbon, hydrogen and nitrogen analyzer (Perkin Eimer), and phosphorous analysis was performed using a Polyscan 61E ICP. Also, hydrogen and phosphorous nuclear magnetic resonance spectra were obtained using a Varian Gemini-300, and the LCST was measured by using a Perkin-Elmer Lamda18 UV/VIS spectrophotometer.
Turning to “(2-(2′-Butoxyethoxy)ethoxy)(L-aspartoyldiethylester) cyclotriphosphazene [Example 7]”, the LCST result is “below 0 °C”.
With “(2-(2′-Ethoxyethoxy)ethoxy)(L-aspartoyldiethylester) cyclotriphosphazene [Example 6]” the figure was 16.5 °C.
To “(2-(2′-Methoxyethoxy)ethoxy)(L-aspartoyldiethylester) cyclotriphosphazene [Example 4]” belongs 47.5 °C; to “(2-(2′-Methoxyethoxy)ethoxy)(L-glutamoyldiethylester) cyclotriphosphazene [Example 5]”, 30.0 °C; to “(2-(2′-Methoxyethoxy)ethoxy)(glycinebenzylester) cyclotriphosphazene [Example 2]”, 10.5 °C.
With “(2-(2′-Methoxyethoxy)ethoxy)(glycineethylester)cyclotriphosphazene [Example 1]” the entry was “above 100 °C”.
“(2-(2′-Methoxyethoxy)ethoxy)-(aminomalonatodiethylester) cyclotriphosphazene [Example 3]”: the LCST worked out at 39.0 °C.
With “(Poly(methoxyethyleneglycol350))(L-aspartoyldibenzylester)cyclotriphosphazene [Example 11]” the figure was 42.5 °C; with “(Poly(methoxyethyleneglycol350))(L-aspartoyldiethylester) cyclotriphosphazene [Example 10]”, 83.0 °C; with “(Poly(methoxyethyleneglycol350))(L-glutamoyldiethylester) cyclotriphosphazene [Example 12]”, 73.0 °C.
To “(Poly(methoxyethyleneglycol350))(aminomalonatoyl diethylester)cyclotriphosphazene [Example 9]” belongs 95.0 °C.
With “(Poly(methoxyethyleneglycol350))(glycinebenzylester) cyclotriphosphazene [Example 8]” the figure was 65.5 °C; with “(Poly(methoxyethyleneglycol750))(L-aspartoyldibenzylester) cyclotriphosphazene [Example 14]”, 78.5 °C.
With “(Poly(methoxyethyleneglycols550))L-aspartoyldibenzylester) cyclotriphosphazene [Example 13]”, the LCST turned out to be 69.0 °C.

Source of the values: patent publication US6417383B1, “Thermosensitive cyclotriphosphazene derivatives and a preparation method thereof” (Korea Institute of Science and Technology, priority 1999, dated 2002).
